The record followed here is BindingDB's records for doi:10.1016/j.bmc.2014.03.018 (Deakin University, 2014).

This experiment can be described thus: Antagonist activity at androgen receptor in human LNCAP cells assessed as inhibition of androgen-stimulated cell growth measured every 3 days.

Broadly, the IC50 is the concentration at which inhibition is half-maximal. Turning to `CC(C)(O)c1cn(-c2ccc(Cl)c(C(F)(F)F)c2)nn1`, the IC50 turned out to be 49 µM.

In the case of `CC(C)(O)c1cn(-c2ccc([N+](=O)[O-])c(C(F)(F)F)c2)nn1`, the IC50 stood at 45 µM.
